Assay results published in paper PMC12494820, “Predicting input signals of transcription factors in Escherichia coli” (Molecular Systems Biology, 2025).

Assays:
[1] = target: T1, LeuO (Escherichia coli, UniProt P10151); assay: thermal shift assay (Protein Thermal Shift Dye); type: binding; details: 10 mM compound; LeuO with leuLABCD promoter DNA; pH 7.5, EMSA buffer without BSA; activating effector
T1 sequence (P10151 1-314): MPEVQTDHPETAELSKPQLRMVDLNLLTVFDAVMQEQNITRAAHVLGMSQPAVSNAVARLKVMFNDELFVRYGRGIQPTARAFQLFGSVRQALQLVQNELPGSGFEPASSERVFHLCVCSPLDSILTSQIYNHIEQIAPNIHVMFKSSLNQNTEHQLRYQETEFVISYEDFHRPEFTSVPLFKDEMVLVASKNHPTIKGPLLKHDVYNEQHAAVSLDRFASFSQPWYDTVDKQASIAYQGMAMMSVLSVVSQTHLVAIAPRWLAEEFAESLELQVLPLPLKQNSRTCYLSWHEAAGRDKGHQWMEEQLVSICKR

[2] = system: LeuO (Escherichia coli); assay: EMSA; details: EMSA: 10 mM Tris-HCl, 50 mM KCl, 5 mM MgCl2, 5% glycerol, 0.1 mg/ml BSA, pH 7.5, 500 ng salmon sperm DNA in 20 µl, 15 min at room temperature; gel 0.5x TBE at …

| ΔTm [1] | Compound | K half [2] |
| --- | --- | --- |
| 1.6 °C | CC(C)[C@@](O)(CC(=O)O)C(=O)O [2-IPM, 2-isopropylmalate] |  |
|  | leuLABCD promoter region fragment | 25 nM |
